Results as given in PubChem BioAssay AID256 (DTP/NCI, 2004).
Several values for one entry are separate records, joined by “and”; a condition that tells them apart may be missing. Equal entries are not always repeated. Toxic doses and inconclusive results are not listed.

Tested on: CD2F1 mice, L1210 leukemia ip, survival T/C
Assay: NCI In Vivo Anticancer Drug Screen. Data for tumor model L1210 Leukemia (intraperitoneal) in CD2F1 (CDF1) mice
Details: higher = longer survival
Summary of the method: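 Antitumor effect is scored in animals hosting a serially transplanted tumor. Values compare compound-dosed animals against vehicle-only controls as a simple quotient.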

[1] = endpoint: mean survival time, dose: 25.0 mg/kg/injection, schedule: Q01DX009 (ip), vehicle: saline with Tween-80
[2] = endpoint: mean survival time, dose: 50.0 mg/kg/injection, schedule: Q01DX009 (ip), vehicle: saline with Tween-80
[3] = endpoint: median survival time, dose: 25.0 mg/kg/injection, schedule: Q01DX009 (ip), vehicle: saline with Tween-80
[4] = endpoint: median survival time, dose: 50.0 mg/kg/injection, schedule: Q01DX009 (ip), vehicle: saline with Tween-80
[5] = endpoint: mean survival time, dose: 100.0 mg/kg/injection, schedule: Q04DX002 (ip), vehicle: saline with Tween-80
[6] = endpoint: mean survival time, dose: 200.0 mg/kg/injection, schedule: Q04DX002 (ip), vehicle: saline with Tween-80
[7] = endpoint: mean survival time, dose: 100.0 mg/kg/injection, schedule: Q04DX003 (ip), vehicle: saline with Tween-80

In the case of `C=Cc1ccncc1`, the T/C (endpoint: mean survival time, dose: 12.5 mg/kg/injection, schedule: Q01DX009 (ip), vehicle: saline with Tween-80) was 91 % of control, the T/C [1] was 95 % of control and the T/C [2] was 98 % of control.

`COC(=O)C[C@](O)(CCC(C)(C)O)C(=O)O[C@@H]1C(OC)=C[C@]23CCCN2CCc2cc4c(cc2[C@H]13)OCO4` was tested, and the T/C (endpoint: median survival time, dose: 0.06 mg/kg/injection, schedule: Q01DX009 (ip), vehicle: saline) was 120 % of control, the T/C (endpoint: median survival time, dose: 0.12 mg/kg/injection, schedule: Q01DX009 (ip), vehicle: saline) was 119 % of control and the T/C (endpoint: median survival time, dose: 0.25 mg/kg/injection, schedule: Q01DX009 (ip), vehicle: saline) was 120 % of control. For the same compound, the T/C (endpoint: median survival time, dose: 0.5 mg/kg/injection, schedule: Q01DX009 (ip), vehicle: saline) was 118 % of control and 120 % of control and the T/C (endpoint: median survival time, dose: 4.0 mg/kg/injection, schedule: Q01DX009 (ip), vehicle: saline) was 153 % of control.

In the case of `Cc1ccc(N)c(N)c1`, the T/C [3] was 98 % of control, the T/C [4] was 98 % of control and the T/C (endpoint: median survival time, dose: 100.0 mg/kg/injection, schedule: Q01DX009 (ip), vehicle: saline with Tween-80) was 96 % of control.

In the case of `CN(C)C(=O)Nc1ccc(F)cc1`, the T/C [5] was 97 % of control, the T/C [6] was 102 % of control and the T/C (endpoint: mean survival time, dose: 400.0 mg/kg/injection, schedule: Q04DX002 (ip), vehicle: saline with Tween-80) was 91 % of control.

In the case of `CSc1ccccc1C(C)(C)C(=O)O`, the T/C [7] was 105 % of control, the T/C (endpoint: mean survival time, dose: 200.0 mg/kg/injection, schedule: Q04DX003 (ip), vehicle: saline with Tween-80) was 105 % of control and the T/C (endpoint: mean survival time, dose: 400.0 mg/kg/injection, schedule: Q04DX003 (ip), vehicle: saline with Tween-80) was 96 % of control.

With `CCCCC(CC)CNCCOC(=O)c1ccc([N+](=O)[O-])cc1` (stereo not drawn) the T/C (endpoint: mean survival time, dose: 75.0 mg/kg/injection, schedule: Q01DX001 (ip), vehicle: saline) was 97 % of control, the T/C (endpoint: mean survival time, dose: 150.0 mg/kg/injection, schedule: Q01DX001 (ip), vehicle: saline) was 100 % of control and the T/C (endpoint: mean survival time, dose: 300.0 mg/kg/injection, schedule: Q01DX001 (ip), vehicle: saline) was 102 % of control.

In the case of `CN(C)c1ncnc2c1cnn2C1OC(CO)C(O)C1O` (stereo not drawn), the T/C (endpoint: mean survival time, dose: 12.5 mg/kg/injection, schedule: Q01DX005 (ip), vehicle: water) was 93 % of control, the T/C (endpoint: mean survival time, dose: 25.0 mg/kg/injection, schedule: Q01DX005 (ip), vehicle: water) was 90 % of control and the T/C (endpoint: mean survival time, dose: 50.0 mg/kg/injection, schedule: Q01DX005 (ip), vehicle: water) was 107 % of control. For the same compound, the T/C (endpoint: mean survival time, dose: 100.0 mg/kg/injection, schedule: Q01DX005 (ip), vehicle: water) was 100 % of control and the T/C (endpoint: mean survival time, dose: 200.0 mg/kg/injection, schedule: Q01DX005 (ip), vehicle: water) was 100 % of control.

With `N=C(N)SCc1ccccc1Cl` the T/C (endpoint: mean survival time, dose: 1.56 mg/kg/injection, schedule: Q01DX009 (ip), vehicle: saline) was 101 % of control, the T/C (endpoint: mean survival time, dose: 3.13 mg/kg/injection, schedule: Q01DX009 (ip), vehicle: saline) was 101 % of control and the T/C (endpoint: mean survival time, dose: 6.25 mg/kg/injection, schedule: Q01DX009 (ip), vehicle: saline) was 101 % of control.

In the case of `CCN(CC)CCCNc1nccc2c(C)c3[nH]c4ccncc4c3cc12`, the T/C (endpoint: median survival time, dose: 5.0 mg/kg/injection, schedule: Q01DX001 (ip), vehicle: other) was 124 % of control, the T/C (endpoint: median survival time, dose: 10.0 mg/kg/injection, schedule: Q01DX001 (ip), vehicle: other) was 157 % of control and the T/C (endpoint: median survival time, dose: 20.0 mg/kg/injection, schedule: Q01DX001 (ip), vehicle: other) was 175 % of control.

In the case of `CCC(NC(N)=O)C(CC)NC(N)=O` (stereo not drawn), the T/C (endpoint: median survival time, dose: 12.5 mg/kg/injection, schedule: Q01DX009 (ip), vehicle: saline with Tween-80) was 97 % of control, the T/C [3] was 96 % of control and the T/C [4] was 90 % of control.

For `CCOC(=O)c1ncn(C2OC(COC(=O)c3ccccc3)C(OC(=O)c3ccccc3)C2OC(=O)c2ccccc2)c1C` (stereo not drawn), the T/C (endpoint: median survival time, dose: 48.9 mg/kg/injection, schedule: Q01DX005 (ip), vehicle: saline with Tween-80) was 98 % of control, the T/C (endpoint: median survival time, dose: 97.8 mg/kg/injection, schedule: Q01DX005 (ip), vehicle: saline with Tween-80) was 100 % of control and the T/C (endpoint: median survival time, dose: 195.6 mg/kg/injection, schedule: Q01DX005 (ip), vehicle: saline with Tween-80) was 90 % of control.

For `O=C(OCC#CCOC(=O)c1c(Cl)ccc(Cl)c1Cl)c1c(Cl)ccc(Cl)c1Cl`, the T/C [5] was 89 % of control and the T/C [6] was 89 % of control.

With `Cc1nc2ccccc2nc1CBr` the T/C (endpoint: mean survival time, dose: 12.5 mg/kg/injection, schedule: Q01DX009 (ip), vehicle: acetone) was 110 % of control.

With `CC1=CC(=O)C(C(C)C)=CC1=O` the T/C [1] was 101 % of control, the T/C [2] was 108 % of control and the T/C [7] was 88 % of control.

For `COc1cc2c(c(OC)c1OC)-c1ccc(SC)c(=O)cc1[C@@H](NC(=O)CCl)CC2`, the T/C (endpoint: mean survival time, dose: 0.05 mg/kg/injection, schedule: Q01DX009 (ip), vehicle: water) was 108 % of control, the T/C (endpoint: mean survival time, dose: 0.1 mg/kg/injection, schedule: Q01DX009 (ip), vehicle: water) was 106 % of control and the T/C (endpoint: mean survival time, dose: 0.2 mg/kg/injection, schedule: Q01DX009 (ip), vehicle: water) was 115 % of control. For the same compound, the T/C (endpoint: mean survival time, dose: 0.4 mg/kg/injection, schedule: Q01DX009 (ip), vehicle: water) was 108 % of control and 111 % of control and the T/C (endpoint: mean survival time, dose: 0.8 mg/kg/injection, schedule: Q01DX009 (ip), vehicle: water) was 120 % of control and 108 % of control.
